Laboratory results taken from US20050215517A1, “Use of an anti-endotoxin drug in the prevention and treatment of disease” (priority 1999, published 2005).

Tested on: LPS endotoxin
Test: Pharmacodynamic analysis of E5564 in vivo: LPS challenge in dogs, plasma TNF-α by bioassay
Parameters: species or system beagle dogs
Conditions: for TNF-α at 1 hour / TNF-α at 2 hours: plasma; for TNF-α at 1 hour: 1 h after LPS 300 ng/kg i.v.; for TNF-α at 2 hours: 2 h after LPS 300 ng/kg i.v.
Method: FIG. 1 is a graph showing the anti-endotoxin activity of E5564 after a single bolus injection. LPS endotoxin (300 ng/kg) was injected intravenously into untreated dogs (∘) or simultaneously with 0.1 mg/kg E5564 (Δ) one hour after E5564 administration (□) or three hours after E5564 administration (●). Blood was drawn and analyzed for TNF-α concentration by bioassay, as is described in the Materials and Methods section, below. Each value represents the mean±S.E.M. of four animals.
In general, the candidate antagonist is administered to a test species of animal, and an appropriate dose of endotoxin (lipopolysaccharide (LPS)) is administered to test the ability of the candidate antagonist to block the effects of endotoxin. Some of the experiments described below use an in vivo challenge of LPS given intravenously both during and after intravenous infusion of E5564. Activity of an antagonist can also be assayed ex vivo by removing blood samples from animals treated with the candidate antagonist and testing that blood to determine if the drug is active and/or present in sufficient quantities to inhibit cellular activation by LPS. In both assays, activity of the antagonist is quantitated by analysis of the cytokines induced by LPS administration. In addition, other physiological symptoms of endotoxin poisoning can be used as readouts of activity. Studies described herein use TNF-α and/or IL-6 as readouts of cellular activation, but a variety of other cytokines and cellular mediators can also be used for this purpose.
As is shown in FIG. 1 and Table 1, delivery of 300 ng/kg of LPS into beagle dogs (“control” in FIG. 1) elicits a strong, reproducible response, as measured by levels of plasma TNF-α. […] This short activity lifetime (i.e., pharmacodynamic half-life) is an unexpected result, as the pharmacokinetic half-life of E5564 is extremely long in comparison (see below). Thus, while the unmodified (unmetabolized) drug appears to remain in circulation for a relatively long period of time, it loses activity. Because of this unexpected discovery, we have chosen to administer E5564 by infusion.
E5564 was synthesized by Eisai Research Institute of Boston, Andover, Mass., U.S.A. E5564 drug product was manufactured at the Eisai Preclinical Laboratory (Tsukuba, Japan) by dissolving 35.4 mg of drug substance in 52.1 ml 0.01 N NaOH, stirring for one hour at room temperature, and diluting into phosphate-buffered lactose. After adjusting the pH to 7.3 and diluting to a final concentration of 0.1 mg/ml E5564, the solution was filter-sterilized and lyophilized.
Escherichia coli LPS (Serotype 0111:B4; phenol extracted, Cat. # L-2630) was purchased from Sigma Chemical Co. Ltd., St. Louis, Mo., U.S.A. Lyophylized E5564 was solubilized in 5 ml of sterile water (Otsuka Pharm. Co. Ltd., Tokyo, Japan). LPS was weighed to an accuracy of 1/10 mg and solubilized in 5% glucose (Otsuka Pharm. Co. Ltd., Tokyo, Japan). The LPS solution was sonicated with a bath-type sonicator for 15 minutes after which aliquots were immediately prepared and stored at −20° C. Prior to use, the solution was sonicated for one or two minutes, and then dilutions were prepared in 5% glucose.
Nine month-old beagles were obtained from Kawashima-shoji Co. Ltd., Gifu, Japan) and housed in stainless steel wire cages (W 800 mm×D 680 mm×H 680 mm; one dog per cage) in a room with a constant temperature of 20-24° C., humidity of 45-65%, and 12 hour light-dark cycle. The animals were provided with pellet food (DS, Oriental Yeast Co., Tokyo, Japan) and water ad libitum. LPS endotoxin (300 ng/0.1 ml/kg) was injected into the vein of the right foreleg at a rate of 1-2 ml/minute, and E5564 was injected into the vein of the left foreleg at a rate of 10-20 ml/minute.
Immediately before or 1, 2, or 4 hours after intravenous injection of LPS and E5564, 1.5 ml of blood was drawn from the left cephalic vein. […]

[1] = 0.1 mg/kg E5564 bolus one hour before LPS
[2] = 0.1 mg/kg E5564 bolus three hours before LPS

CCCCCC/C=C\CCCCCCCCCC(=O)N[C@H]1[C@H](OC[C@H]2O[C@H](OP(=O)(O)O)[C@H](NC(=O)CC(=O)CCCCCCCCCCC)[C@@H](OCCCCCCCCCC)[C@@H]2O)O[C@H](COC)[C@@H](OP(=O)(O)O)[C@@H]1OCC[C@@H](CCCCCCC)OC [E5564, α-D-Glucopyranose, 3-O-decyl-2-deoxy-6-O-[2-deoxy-3-O-[(3R)-3-methoxydecyl)-6-O-methyl-2-[[(11Z)-1-oxo-11-octadecenyl)amino]-4-O-phosphono-β-D-glucopyranosyl]-2-[(1,3-dioxotetradecyl)amino]-,1-(dihydrogen phosphate)]
Blocking of LPS challenge (plasma TNF-α) (0.1 mg/kg E5564 given at the same time as LPS 300 ng/kg): completely effective
Response to LPS (% of control) (E5564 one hour before LPS): 0 % of control
Sum of TNF-α (AUC) (E5564 one hour before LPS): 0 units/ml
Inhibition of LPS response (E5564 simultaneously with LPS): 100
Response to LPS (% of control) (E5564 simultaneously with LPS): 0 % of control
Response to LPS (% of control) (E5564 three hours before LPS): 52 % of control
Activity of the endotoxin antagonist remaining (LPS administered three hours after 0.1 mg/kg E5564): about 48 % of its original activity
TNF-α at 1 hour [1]: 0 units/ml
TNF-α at 1 hour (0.1 mg/kg E5564 bolus simultaneously with LPS, four dogs): 0 units/ml
TNF-α at 1 hour [2]: 1353 ± 340 units/ml
TNF-α at 2 hours [1]: 0 units/ml
TNF-α at 2 hours (0.1 mg/kg E5564 bolus simultaneously with LPS): 0 units/ml
TNF-α at 2 hours [2]: 190 ± 113 units/ml
